Earlier results as cited in PMC12207880 (The Oncologist, 2025).
Like-named read-outs stand apart in the source and are kept apart here.

Assays:
[1] = test system: patients treated with abemaciclib alone
[2] = 200 mg BID
[3] = test system: advanced solid tumors; parameters: method as in earlier work
[4] = test system: patients treated with endocrine therapy combined with palbociclib
[5] = sample size 33 (escalation phase), U.S.A
[6] = sample size 132, U.S.A, France, Netherland

## CCN1CCN(Cc2ccc(Nc3ncc(F)c(-c4cc(F)c5nc(C)n(C(C)C)c5c4)n3)nc2)CC1 [Abemaciclib, abemaciclib]
[1]
  hypokalaemia of grade 3: 2 patients
[1]; 34 of 130 patients
  hypokalaemia of all grades: 26.2%
[2]; n=5
  Ctrough: 210 (89%, n=5) ng/mL
[2]; n=52
  Ctrough: 197 (82%, n=52) ng/mL
[3]; sample size 25, China
  Overall DCR: 68.0%
  Overall ORR: 8.0%
[3]; [5]
  Overall DCR: 48.5%
  Overall ORR: 0%

## CC(=O)c1c(C)c2cnc(Nc3ccc(N4CCNCC4)cn3)nc2n(C2CCCC2)c1=O [Palbociclib, palbociclib]
[4]; 1 of 135 patients
  grade 4 increased GGT: 0.7%
[4]; 3 of 135 patients
  grade 3 increased GGT: 2.2%
[4]; 135 patients
  overall incidence of increased GGT: 4.4%
[3]; sample size 37, U.S.A
  Overall DCR: 35%
  Overall ORR: 0%

## CN(C)C(=O)c1cc2cnc(Nc3ccc(N4CCNCC4)cn3)nc2n1C1CCCC1 [Ribociclib, ribociclib]
[3]; [6]
  Overall DCR: 32.6%
  Overall ORR: 2.3%
